Data from PMC8026785, “The pharmacokinetics of [^18F]UCB-H revisited in the healthy non-human primate brain” (EJNMMI Research, 2021).
Where “and” joins values, the source holds several entries; their conditions need not be identical. Equal values may be shown once.

Molecular target: T1, SV2A (Macaca fascicularis, UniProt Q4R4X3)
T1 construct: The current study evaluates [^18F]UCB-H pharmacokinetics in healthy NHPs; from tissue; host or cells: brain of living healthy cynomolgus monkeys (in vivo PET)
Assay: Brain PET kinetic modelling (1TCM, 2TCM, 2TCM-c, Logan), test-retest
Format: in vivo, cynomolgus monkeys (Macaca fascicularis)
Procedure: All four non-human primates (NHP) underwent a 2-h (2 h) test and retest PET scan; two NHP underwent an additional 4-h (4 h) retest PET scan. Three NHP underwent one 4-h (4 h) displacement PET scan. Arterial blood sampling was performed during test and retest scans with PET imaging spaced by at least 3 weeks between each scan. To this end, the femoral artery opposite to the saphenous vein used for radioligand injection was cannulated. For the 2-h (2 h) scans, we collected in total 28 blood samples of 1 mL: 16 samples during the first 5 min followed by […] every 5 min and […] every 10 min. For the 4 h scans, we collected an additional 6 samples every 20 min during the last two hours (34 samples in total). Larger samples (2 – 3 mL) were collected at 5, 15, 30, 60, 90, 120 min (2 h) and at 180, 240 min (4 h) for metabolite analysis. Displacement of [^18F]UCB-H was done by intravenous (IV) administration 90 min after [^18F]UCB-H injection of a bolus of 30 mg/kg LEV, or of 80 µg/kg (≈250 nmol/kg) or 5 mg/kg (≈15 µmol/kg) of cold [^19F]-UCB-H. Full experimental design of all NHP is outlined in Additional file 1: Table 1.
PET imaging was performed on the microPET FOCUS220 (Siemens) under standard anesthesia and monitoring procedures. Data acquisition started with the IV bolus injection of [^18F]UCB-H (32.9 ± 1.0 MBq/kg, 0.35 ± 0.07 µg/kg). Dynamic PET images were reconstructed using standard OSEM-2D algorithms while correcting for radioactive decay, scatter, attenuation and detectors inhomogeneity, which were measured prior to PET scanning using respectively ^57Co and ^68Ge external sources.
PET image analysis was performed using PMOD software version 3.8 (PMOD Technologies Ltd., Zurich, Suisse). After individual co-registration of PET-MR images, a cynomolgus atlas published by Ballanger and coworkers was normalized to PET images to extract time activity curves in different brain regions. Volumes of interest (VOI) were cerebral white matter (16.7 cm^3), striatum (0.24 cm^3), thalamus (0.89 cm^3), cerebellum (3.83 cm^3), frontal—(2.50 cm^3), parietal—(5.35 cm^3), and temporal (8.22 cm^3) cortex, and whole brain (72.2 cm^3) as a composite region of all regions in the atlas. [^18F]UCB-H pharmacokinetics were evaluated by analyzing the time activity curves of the test- and retest scans using 1- and 2-tissue compartment models (unconstrained and constrained with global K1/k2 coupled fit across all regions, further referred to as 2TCM and 2TCM-c), and Logan graphical analysis with a fixed t* at 60 min [33] using the arterial plasma input function corrected for radio-metabolites to derive the volume of distribution in each region. Percentage standard error (%SE) was estimated from the theoretical parameter covariance matrix. Only reliable estimates (%SE less than 25%) were included in the current analyses. For the three drug studies, percent displacement of the total activity in the whole brain was estimated relative to an average baseline constructed from the two 4 h baseline studies. Briefly, Standardized Uptake Value (SUV) time activity curves (TACs) were calculated for the two baseline and the three displacement studies. Then, each curve was normalized to the SUV at t = 90 min, corresponding to the timeframe immediately before the administration of the drugs in the displacement studies. Baseline curves were averaged and the percent displacement of total activity was calculated as (baseline-displacement)/baseline at a given time post drug administration (see “Results”).
Statistical analysis was performed using R software (version 3.3.1.). Plasma, intact parent fraction and time activity curves were statistically compared between subjects using a one-factor variance analysis. Absolute Test–Retest variability (aTRV) of PET quantification parameters was calculated as ABS(test—retest) / AVERAGE(test, retest). […]

[1] = Parietal Cortex, Retest, individual NHP
[2] = Parietal Cortex, Test, individual NHP
[3] = Striatum, Retest, individual NHP

T1 sequence (Q4R4X3 whole entry): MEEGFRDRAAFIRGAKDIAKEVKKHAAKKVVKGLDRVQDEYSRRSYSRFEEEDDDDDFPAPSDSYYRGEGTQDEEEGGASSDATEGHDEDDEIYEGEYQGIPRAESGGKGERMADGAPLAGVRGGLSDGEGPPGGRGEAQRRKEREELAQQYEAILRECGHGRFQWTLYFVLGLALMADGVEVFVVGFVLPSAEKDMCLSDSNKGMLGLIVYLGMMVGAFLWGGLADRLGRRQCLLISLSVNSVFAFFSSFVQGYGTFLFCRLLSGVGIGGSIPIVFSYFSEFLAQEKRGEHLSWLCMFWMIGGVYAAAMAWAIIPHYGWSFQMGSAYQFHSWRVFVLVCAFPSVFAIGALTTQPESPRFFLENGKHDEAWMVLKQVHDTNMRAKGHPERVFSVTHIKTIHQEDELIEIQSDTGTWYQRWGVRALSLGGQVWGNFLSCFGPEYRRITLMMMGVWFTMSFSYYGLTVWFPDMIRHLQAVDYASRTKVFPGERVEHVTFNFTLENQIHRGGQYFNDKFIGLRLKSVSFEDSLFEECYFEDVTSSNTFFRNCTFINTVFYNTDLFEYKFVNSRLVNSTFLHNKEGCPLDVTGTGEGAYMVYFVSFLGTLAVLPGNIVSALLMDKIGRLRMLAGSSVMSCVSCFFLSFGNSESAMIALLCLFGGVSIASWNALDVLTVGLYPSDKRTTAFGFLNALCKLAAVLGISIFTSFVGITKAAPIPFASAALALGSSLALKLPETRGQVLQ

O=C1C[C@H](c2cc(F)c(F)c(F)c2)CN1Cc1ccncc1[18F] [[^18F]UCB-H]
VT (2TCM) (Frontal cortex, Retest, mean): 13.1 mL/cm^3 | VT (2TCM-c) (Frontal cortex, Retest, mean): 14.7 mL/cm^3 | VT (Logan (t* = 60)) (Frontal cortex, Retest, mean): 14.8 mL/cm^3 | k3/k4 (BPND) (2TCM-c) (Frontal cortex, Retest, mean): 1.32 | VT (1TCM) (Frontal cortex, Test, mean): 13.8 mL/cm^3 | VT (2TCM) (Frontal cortex, Test, mean): 16.3 mL/cm^3 | VT (2TCM-c) (Frontal cortex, Test, mean): 14.8 mL/cm^3 | VT (Logan (t* = 60)) (Frontal cortex, Test, mean): 15.0 mL/cm^3 | k3/k4 (BPND) (2TCM-c) (Frontal cortex, Test, mean): 1.25 | ICC of VT, overall (Logan): ~ 0.6 | aTRV of VT, overall (Logan): ~ 11% and ~ 12% | aTRV of VT (MA1, data not shown): ~ 11% | K1 (2TCM) [1]: 0.42 ml/cm^3 /min and 0.32 ml/cm^3 /min and 0.38 ml/cm^3 /min and 0.33 ml/cm^3 /min | K1 (2TCM-c) [1]: 0.44 ml/cm^3 /min and 0.33 ml/cm^3 /min and 0.38 ml/cm^3 /min and 0.34 ml/cm^3 /min | K1/k2 (2TCM) [1]: 13.02 ml/cm^3 and 14.99 ml/cm^3 | K1/k2 (2TCM-c) [1]: 4.64 ml/cm^3 and 9.07 ml/cm^3 and 10.70 ml/cm^3 and 7.25 ml/cm^3 | VT (1TCM) [1]: 13.99 ml/cm^3 and 16.57 ml/cm^3 and 15.57 ml/cm^3 and 13.26 ml/cm^3 | VT (2TCM) [1]: 13.98 ml/cm^3 and 13.26 ml/cm^3 | VT (2TCM-c) [1]: 14.02 ml/cm^3 and 18.28 ml/cm^3 and 18.66 ml/cm^3 and 13.26 ml/cm^3 | VT (Logan) [1]: 13.75 ml/cm3 and 19.72 ml/cm3 and 15.91 ml/cm3 and 13.60 ml/cm3 | k3/k4 (2TCM-c) [1]: 2.02 and 1.04 and 0.78 and 0.83 | K1 (2TCM) [2]: 0.22 ml/cm^3 /min and 0.40 ml/cm^3 /min and 0.41 ml/cm^3 /min and 0.18 ml/cm^3 /min | K1 (2TCM-c) [2]: 0.23 ml/cm^3 /min and 0.41 ml/cm^3 /min and 0.42 ml/cm^3 /min and 0.18 ml/cm^3 /min | K1/k2 (2TCM) [2]: 7.68 ml/cm^3 and 12.37 ml/cm^3 and 12.79 ml/cm^3 and 13.88 ml/cm^3 | K1/k2 (2TCM-c) [2]: 4.35 ml/cm^3 and 8.22 ml/cm^3 and 10.99 ml/cm^3 and 7.86 ml/cm^3 | VT (1TCM) [2]: 10.65 ml/cm^3 and 17.46 ml/cm^3 and 14.10 ml/cm^3 and 15.09 ml/cm^3 | VT (2TCM) [2]: 12.22 ml/cm^3 and 18.71 ml/cm^3 | VT (2TCM-c) [2]: 11.12 ml/cm^3 and 17.78 ml/cm^3 and 15.03 ml/cm^3 and 17.47 ml/cm^3 | VT (Logan) [2]: 11.83 ml/cm3 and 18.19 ml/cm3 and 15.28 ml/cm3 and 16.49 ml/cm3 | k3/k4 (2TCM) [2]: 0.59 | k3/k4 (2TCM-c) [2]: 1.56 and 1.38 and 0.37 and 1.00 | ICC of 2TCM-c VT (Parietal cortex): 0.38 | ICC of Logan (t* = 60) VT (Parietal cortex): 0.75 | aTRV of 2TCM-c VT (Parietal cortex): 19% | aTRV of Logan (t* = 60) VT (Parietal cortex): 12% | VT (1TCM) (Parietal cortex, Retest, mean): 14.8 mL/cm^3 | VT (2TCM) (Parietal cortex, Retest, mean): 13.6 mL/cm^3 | VT (2TCM-c) (Parietal cortex, Retest, mean): 16.1 mL/cm^3 | VT (Logan (t* = 60)) (Parietal cortex, Retest, mean): 15.7 mL/cm^3 | k3/k4 (BPND) (2TCM-c) (Parietal cortex, Retest, mean): 1.17 | VT (1TCM) (Parietal cortex, Test, mean): 14.3 mL/cm^3 | VT (2TCM) (Parietal cortex, Test, mean): 15.5 mL/cm^3 | VT (2TCM-c) (Parietal cortex, Test, mean): 15.4 mL/cm^3 | VT (Logan (t* = 60)) (Parietal cortex, Test, mean): 15.4 mL/cm^3 | k3/k4 (BPND) (2TCM-c) (Parietal cortex, Test, mean): 1.08 | ICC of Logan (t* = 60) VT (Striatum): 0.67 | aTRV of 2TCM-c VT (Striatum): 12% | aTRV of Logan (t* = 60) VT (Striatum): 11% | K1 (2TCM) [3]: 0.41 ml/cm^3 /min and 0.54 ml/cm^3 /min and 0.44 ml/cm^3 /min and 0.46 ml/cm^3 /min | K1 (2TCM-c) [3]: 0.42 ml/cm^3 /min and 0.58 ml/cm^3 /min and 0.46 ml/cm^3 /min and 0.47 ml/cm^3 /min | K1/k2 (2TCM) [3]: 11.34 ml/cm^3 and 15.36 ml/cm^3 | K1/k2 (2TCM-c) [3]: 7.25 ml/cm^3 and 4.64 ml/cm^3 and 9.07 ml/cm^3 and 10.70 ml/cm^3 | VT (1TCM) [3]: 13.04 ml/cm^3 and 14.96 ml/cm^3 and 15.52 ml/cm^3 and 15.75 ml/cm^3 | VT (2TCM) [3]: 13.09 ml/cm^3 and 15.01 ml/cm^3 | VT (2TCM-c) [3]: 13.08 ml/cm^3 and 15.06 ml/cm^3 and 17.64 ml/cm^3 and 15.26 ml/cm^3 | VT (Logan) [3]: 13.39 ml/cm3 and 14.93 ml/cm3 and 18.31 ml/cm3 and 16.14 ml/cm3 | k3/k4 (2TCM-c) [3]: 0.80 and 2.25 and 0.97 and 0.45 | VT (1TCM) (Striatum, Retest, mean): 14.8 mL/cm^3 | VT (2TCM) (Striatum, Retest, mean): 14.1 mL/cm^3 | VT (2TCM-c) (Striatum, Retest, mean): 15.3 mL/cm^3
